Reference: patent US11292788B2, “IL-17 and IFN-gamma inhibition for the treatment of autoimmune diseases and chronic inflammation” (Immunic AG, priority 2017, dated 2022)
pIC50: −log10 of the molar value. In brackets after ≈: the same amount, converted by molar mass. Like-named read-outs stand apart in the source and are kept apart here.

Assays:
[1] = tested on: IL-17A; assay: Cytokine assay: IL-17A production by human PBMC stimulated with PHA; assay type: cell-based; conditions: IC50 class, read-out: IL-17A Inhib.
Method in brief: (§1)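 Healthy-donor PBMC, isolated on Histopaque-1077, were seeded at 1×10^5 cells/well in RPMI1640 with 10% dialyzed heat-inactivated FCS, activated with 2 μg/ml PHA and incubated with compound for 48 hours. Supernatant cytokine was measured by Luminex BioPlex or ELISA. IC50 came from semilogarithmic titration; screening used 10, 1, 0.1 and 0.01 μM.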

[2] = tested on: IL-17F; assay: Cytokine assay: IL-17F production by human PBMC stimulated with PHA; assay type: cell-based; conditions: Homo sapiens, PBMC, IC50 class, read-out: IL-17F Inhib.
Method in brief: as §1

[3] = tested on: INF-γ; assay: Cytokine assay: INF-γ production by human PBMC stimulated with PHA; assay type: cell-based; conditions: Homo sapiens, PBMC, IC50 class, read-out: IFN-gamma Inhib.
Method in brief: as §1

[4] = Aqueous solubility in 50 mM phosphate buffer (HPLC/DAD); assay type: physicochemical; conditions: 50 mM phosphate buffer, 23 °C, pH 7.4, aqueous buffer, kinetic from dmso stock, aqueous solubility class; read-out: aq. solub.
Method: To achieve this, the samples (final volume 500 μl, 200 μM compound concentration) were incubated for 24 hours at 23° C. under continuous shaking at 1400 rpm (Thermomixer, Eppendorf) in aqueous phosphate buffers (pH 4.0, 6.0, 7.4 and 9.0) with a final DMSO concentration of 1%. To separate the undissolved compound from the solution, the samples were centrifuged (30 min 18000 g at 23° C.). Supernatants were measured via HPLC equipped with a UV detector and concentrations were calculated according to signals of a standard curve. The standard curve was prepared by diluting a stock solution of each compound (c=0.1 mg/ml; received by adding 10 μl of 20 mM compound in DMSO to 914 μl MeCN) in a certain amount of MeCN to cover a range of 0.1 to 200 μg/ml.

[5] = Microsomal stability: incubation with human liver microsomes, residual parent compound by HPLC-MS/MS; assay type: in vitro ADME; conditions: up to 60 min, read-out: t1/2 hLM
Method in brief: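 Compound at 1 μM final with 0.5 mg/ml pooled human liver microsomes and NADPH regenerating system, 0.1 M potassium phosphate pH 7.4, 0.4% DMSO, 37° C, sampled up to 60 min. Residual parent measured by HPLC-MS/MS; half-life and clearance from slope of remaining % of T0.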

[6] = human liver microsomes 0.5 mg/ml, compound 1 μM, pH 7.4, 37° C.
[7] = pH 7.4, human liver microsomes, 1 μM compound, 0.5 mg/ml HLM, 37° C.

SMILES | pIC50 ([1]; Homo sapiens, PBMC) | pIC50 [2] | pIC50 [3] | solubility at 24 h [4] | half-life at 1 μM [5, 6] | half-life at 1 μM [5, 7] | pIC50 [1]
Cc1c(-c2onc(-c3c(F)cccc3Cl)c2COC2CC2)cnn1CCC(C)(C)O [Example 82, 4-{4-[3-(2-chloro-6-fluorophenyl)-4-(cyclopropoxymethyl)-1,2-oxazol-5-yl]-5-methyl-1H-pyrazol-1-yl}-2-methylbutan-2-ol] | > 7.30 | > 7.30 | > 7.30 | > 10 µM | > 1.67 h | – | –
CC(C)OCc1c(-c2c(F)cccc2Cl)noc1-c1cnn(C[C@@H](C)O)c1C(F)(F)F [Example 89, (2R)-1-{4-[3-(2-chloro-6-fluorophenyl)-4-[(propan-2-yloxy)methyl]-1,2-oxazol-5-yl]-5-(trifluoromethyl)-1H-pyrazol-1-yl}propan-2-ol] | > 7.30 | > 7.30 | > 7.30 | > 10 µM | 0.0333 to 0.167 h | – | –
C[C@@H](O)Cn1ncc(-c2onc(-c3c(F)cccc3Cl)c2COC2CCC2)c1C(F)(F)F [Example 90, (2R)-1-(4-(3-(2-chloro-6-fluorophenyl)-4-(cyclobutoxymethyl)isoxazol-5-yl)-5-(trifluoromethyl)-1H-pyrazol-1-yl)propan-2-ol] | > 7.30 | > 7.30 | > 7.30 | > 10 µM | 0.0333 to 0.167 h | – | –
Cc1c(-c2onc(-c3ccccc3Cl)c2-c2ncccn2)cnn1[C@H]1C[C@@](C)(O)C1 [Example 99, 3-(4-(3-(2-chlorophenyl)-4-(pyrimidin-2-yl)isoxazol-5-yl)-5-methyl-1H-pyrazol-1-yl)-1-methylcyclobutan-1-ol] | 6.30 to 7.30 | > 7.30 | > 7.30 | > 10 µM | – | > 1.67 h | –
C[C@]1(O)C[C@@H](n2ncc(-c3onc(-c4c(F)cccc4Cl)c3-c3ccncn3)c2C(F)(F)F)C1 [Example 104, 3-{4-[3-(2-chloro-6-fluorophenyl)-4-(pyrimidin-4-yl)-1,2-oxazol-5-yl]-5-(trifluoromethyl)-1H-pyrazol-1-yl}-1-methylcyclobutan-1-ol] | – | > 7.30 | > 7.30 | 1 to 2.99 µM (≈ 0.494 to 1.48 µg/mL) | – | > 1.67 h | > 7.30
Cc1c(-c2onc(-c3c(F)cccc3Cl)c2-c2cnccn2)cnn1[C@H]1C[C@@](C)(O)C1 [Example 110, 3-{4-[3-(2-chloro-6-fluorophenyl)-4-(pyrazin-2-yl)-1,2-oxazol-5-yl]-5-methyl-1H-pyrazol-1-yl}-1-methylcyclobutan-1-ol] | 6.30 to 7.30 | 6.30 to 7.30 | 6.30 to 7.30 | > 10 µM | – | > 1.67 h | –
Cc1c(-c2onc(-c3c(F)cccc3Cl)c2-c2ncccn2)cnn1[C@H]1C[C@@](C)(O)C1 [Example 111, 3-{4-[3-(2-chloro-6-fluorophenyl)-4-(pyrimidin-2-yl)-1,2-oxazol-5-yl]-5-methyl-1H-pyrazol-1-yl}-1-methylcyclobutan-1-ol] | > 7.30 | > 7.30 | > 7.30 | > 10 µM | – | > 1.67 h | –
COc1cccc(-c2noc(-c3cnn([C@H]4C[C@@](C)(O)C4)c3C)c2-c2ncccn2)c1Cl [Example 112, 3-{4-[3-(2-chloro-3-methoxyphenyl)-4-(pyrimidin-2-yl)-1,2-oxazol-5-yl]-5-methyl-1H-pyrazol-1-yl}-1-methylcyclobutan-1-ol] | > 7.30 | > 7.30 | > 7.30 | > 10 µM | – | > 1.67 h | –
CC(C)(O)CCn1ncc(-c2onc(-c3c(F)cccc3Cl)c2-c2ncccn2)c1C(F)(F)F [Example 123, 4-{4-[3-(2-chloro-6-fluorophenyl)-4-(pyrimidin-2-yl)-1,2-oxazol-5-yl]-5-(trifluoromethyl)-1H-pyrazol-1-yl}-2-methylbutan-2-ol] | > 7.30 | > 7.30 | > 7.30 | > 10 µM | – | > 1.67 h | –
Cc1c(-c2onc(-c3ccccc3Cl)c2-c2ncccn2)cnn1CCC(C)(C)O [Example 126, 4-[4-[3-(2-chlorophenyl)-4-(pyrimidin-2-yl)-1,2-oxazol-5-yl]-5-methyl-1H-pyrazol-1-yl]-2-methylbutan-2-ol] | 6.30 to 7.30 | 6.30 to 7.30 | 6.30 to 7.30 | > 10 µM | – | > 1.67 h | –
CC(C)(O)CCn1ncc(-c2onc(-c3cccc(OCc4ccccc4)c3Cl)c2-c2ncccn2)c1C(F)(F)F [Example 128, 4-(4-{3-[3-(benzyloxy)-2-chlorophenyl]-4-(pyrimidin-2-yl)-1,2-oxazol-5-yl}-5-(trifluoromethyl)-1H-pyrazol-1-yl)-2-methylbutan-2-ol] | > 7.30 | > 7.30 | ≤ 5.30 | < 1 µM | – | 0.0333 to 0.167 h | –

Further lines, results first:

pIC50 ([1]; Homo sapiens, PBMC) | pIC50 [2] | pIC50 [3] | solubility at 24 h [4] | half-life at 1 μM [5, 6] | half-life at 1 μM [5, 7] | pIC50 [1] | SMILES
> 7.30 | > 7.30 | > 7.30 | 3 to 9.99 µM (≈ 1.46 to 4.87 µg/mL) | > 1.67 h | – | – | CC(C)(O)CCn1ncc(-c2onc(-c3c(F)cccc3Cl)c2COC2CC2)c1C(F)(F)F [Example 77, 4-{4-[3-(2-chloro-6-fluorophenyl)-4-(cyclopropoxymethyl)-1,2-oxazol-5-yl]-5-(trifluoromethyl)-1H-pyrazol-1-yl}-2-methylbutan-2-ol]
6.30 to 7.30 | > 7.30 | > 7.30 | > 10 µM | 0.667 to 1.67 h | – | – | CC(C)(O)CCn1ncc(-c2onc(-c3ccccc3Cl)c2COC2CC2)c1C(F)(F)F [Example 78, 4-{4-[3-(2-chlorophenyl)-4-(cyclopropoxymethyl)-1,2-oxazol-5-yl]-5-(trifluoromethyl)-1H-pyrazol-1-yl}-2-methylbutan-2-ol]
> 7.30 | > 7.30 | > 7.30 | 1 to 2.99 µM (≈ 0.432 to 1.29 µg/mL) | 0.667 to 1.67 h | – | – | Cc1c(-c2onc(-c3c(F)cccc3Cl)c2COC2CC2)cnn1[C@H]1C[C@@](C)(O)C1 [Example 83, 3-{4-[3-(2-chloro-6-fluorophenyl)-4-(cyclopropoxymethyl)-1,2-oxazol-5-yl]-5-methyl-1H-pyrazol-1-yl}-1-methylcyclobutan-1-ol]
6.30 to 7.30 | > 7.30 | > 7.30 | > 10 µM | > 1.67 h | – | – | C[C@]1(O)C[C@@H](n2ncc(-c3onc(-c4ccccc4Cl)c3COC3CC3)c2C(F)(F)F)C1 [Example 87, 3-{4-[3-(2-chlorophenyl)-4-(cyclopropoxymethyl)-1,2-oxazol-5-yl]-5-(trifluoromethyl)-1H-pyrazol-1-yl}-1-methylcyclobutan-1-ol]
5.30 to 6.30 | ≤ 5.30 | ≤ 5.30 | 1 to 2.99 µM (≈ 0.476 to 1.42 µg/mL) | – | > 1.67 h | – | C[C@]1(O)C[C@@H](n2ncc(-c3onc(-c4ccccc4Cl)c3-c3cnccn3)c2C(F)(F)F)C1 [Example 101, 3-{4-[3-(2-chlorophenyl)-4-(pyrazin-2-yl)-1,2-oxazol-5-yl]-5-(trifluoromethyl)-1H-pyrazol-1-yl}-1-methylcyclobutan-1-ol]
> 7.30 | > 7.30 | > 7.30 | > 10 µM | – | > 1.67 h | – | C[C@]1(O)C[C@@H](n2ncc(-c3onc(-c4ccccc4Cl)c3-c3ncccn3)c2C(F)(F)F)C1 [Example 102, 3-{4-[3-(2-chlorophenyl)-4-(pyrimidin-2-yl)-1,2-oxazol-5-yl]-5-(trifluoromethyl)-1H-pyrazol-1-yl}-1-methylcyclobutan-1-ol]
> 7.30 | > 7.30 | > 7.30 | > 10 µM | – | > 1.67 h | – | C[C@]1(O)C[C@@H](n2ncc(-c3onc(-c4ccccc4Cl)c3-c3ccncn3)c2C(F)(F)F)C1 [Example 106, 3-{4-[3-(2-chlorophenyl)-4-(pyrimidin-4-yl)-1,2-oxazol-5-yl]-5-(trifluoromethyl)-1H-pyrazol-1-yl}-1-methylcyclobutan-1-ol]
> 7.30 | > 7.30 | > 7.30 | 3 to 9.99 µM (≈ 1.49 to 4.97 µg/mL) | – | 0.667 to 1.67 h | – | COc1cccc(-c2noc(-c3cnn([C@H]4C[C@@](C)(O)C4)c3C(F)(F)F)c2COC2CC2)c1Cl [Example 130, 3-(4-(3-(2-chloro-3-methoxyphenyl)-4-(cyclopropoxymethyl)isoxazol-5-yl)-5-(trifluoromethyl)-1H-pyrazol-1-yl)-1-methylcyclobutan-1-ol]
